Source: patent US20250205265A1, “ASPERULOSIDE AS AN AGENT FOR IMPROVING VASCULAR AND METABOLIC FUNCTION IN OBESITY: ROLE OF NRF2 ACTIVATION” (The Chinese University of Hong Kong, priority 2023, published 2025)

Legend:
Nrf2 = Nrf2 nuclear translocation in endothelial cells; assay type: cell-based; settings: ML385 co-treatment; immunofluorescence and western blotting
Procedure: After induction of obesity in C57BL/6 male mice fed with high fat diet for twelve weeks, they were treated daily with ASP (50 mg/kg) via oral gavage for seven weeks in vivo study. C57BL/6 mice aortae were used for ex vivo study and endothelial cells were used for in vitro study. Vascular function was determined by wire myograph. DHE and MitoSOX staining were used to detect ROS levels. QPCR, aortic en-face immunofluorescence staining, and Western blotting were used to analyze mRNA and protein expressions. Small interfering (si)RNA of Nrf2 and HO-1, inhibitors of Nrf2 (ML385, Cat. No.: HY-100523) and HO-1 (OB-24, HY-118487) were used to elucidate the mechanistic pathway of ASP's action.
(§1) After induction of obesity in C57BL/6 male mice fed with the high-fat diet for twelve weeks, they were treated daily with ASP (50 mg/kg) via oral gavage for seven weeks in vivo study. C57BL/6 mice aortae were used for ex vivo studies. Endothelial cells, HepG2 and primary adipocytes were used for in vitro studies. Vascular function was determined by wire myograph. H&E staining was employed for histological examination. Oil Red O staining was used to determine lipid droplets in tissues and cells. DHE and MitoSOX staining were used to detect ROS levels. QPCR, aortic en-face immunofluorescence staining, and Western blotting were used to analyze mRNA and protein expressions. ARE binding activity was determined by Dual luciferase reporter assay. Small interfering (si)RNA of Nrf2 and HO-1, inhibitors of Nrf2 (ML385, Cat. No.: HY-100523) and HO-1 (OB-24, HY-118487) were used to elucidate the mechanistic pathway of ASP's action.

[1] = test system: Nrf2/antioxidant responsive element (ARE); assay: ARE binding activity, luciferase reporter assay in endothelial cells; assay type: cell-based; settings: luciferase reporter assay
Procedure: as §1

**Q.** For Cc1ccccc1C(=O)N1CCc2cc(-c3nc(NC(=O)Cc4ccc5c(c4)OCO5)sc3C)ccc21 [ML385, reference compound], which “effect on Nrf2 nuclear translocation stimulated by ASP” value (Nrf2) is on record?
**A.** blocks Nrf2 nuclear translocation stimulated by ASP

**Q.** And the “effect on activation of ARE binding by ASP” value [1]?
**A.** attenuates the activation of ARE binding by ASP
